Experimental data as given in patent US11098288B2, “D-type amino acid dehydrogenase” (Kureha Corporation, priority 2017, dated 2021).
Values belong to the molecule of their own block, whether it stands above or below them.

Assays:
[1] = tested on: Six-mutation enzyme (Asp94Ser, Met154Leu, Val158Gly, Thr173Ile, Arg183Met, His229Asn; SEQ ID NO: 8); assay: D-amino acid synthesis activity (amination of 2-oxo acid), six-mutation enzyme; assay type: biochemical, Thermosyntropha lipolytica; conditions: 5 mM 2-oxoacid, 200 mM ammonium chloride, glycine buffer pH 9.5, 50° C.; for D-amino acid synthesis activity (specific activity), Six-mutation enzyme, NADH: NADH 0.1 mM; for D-amino acid synthesis activity (specific activity), Six-mutation enzyme, NADPH: NADPH 0.1 mM
Procedure: Using this as a template, the gene of the enzyme was amplified by PCR using “PrimeSTAR Max DNA Polymerase” available from Takara Bio Inc. PCR was performed according to the manufacturer's instructions. The PCR reaction solution was prepared so as to contain 0.3 μM of each of the following primers and 50 ng of the above-described template DNA.
According to the manufacturer's protocol, the purified amplification product was incorporated into a pET100 vector (I available from Invitrogen) of a plasmid for protein expression to construct a six-mutation D-type amino acid dehydrogenase/pET100. The expression vector was constructed so as to incorporate a six-mutation D-type amino acid dehydrogenase gene derived from T. lipolytica downstream of the T7 promoter and […], and upstream of the T7 terminator.
(§1) The activity of the enzyme was measured by determining a decrease in absorbance at wavelength of 340 nm of NADPH or NADH […] by the catalytic reaction of the enzyme and determining the enzymatic activity by the determined decrease in absorbance as an indicator. […] The absorbance was measured by an ultraviolet-visible spectrophotometer UV-1800 (available from SHIMADZU). […]

[2] = tested on: Five-mutation enzyme (five-mutation D-type amino acid dehydrogenase, SEQ ID NO: 14); assay: D-amino acid synthesis activity (amination of 2-oxo acid), five-mutation enzyme; assay type: biochemical, Thermosyntropha lipolytica; conditions: 5 mM 2-oxoacid, 200 mM ammonium chloride, glycine buffer pH 9.5, 50° C.; for D-amino acid synthesis activity (specific activity), Five-mutation enzyme, NADH: NADH 0.1 mM; for D-amino acid synthesis activity (specific activity), Five-mutation enzyme, NADPH: NADPH 0.1 mM
Procedure: The PCR reaction solution was prepared so as to contain 0.3 μM of each of the following primers and 50 ng of the above-described template DNA.
After PCR, 2 μL of DpnI was added to the reaction solution and treated at 37° C. for 1 hour, and E. coli DH5α was transformed using the solution after treatment. Transformed cells were coated on an LB agar plate containing antibiotic ampicillin (final concentration 100 mg/L) and cultured at 37° C. for 16 hours. The generated colonies were harvested and cultured in LB liquid medium containing ampicillin overnight. The strains were collected from the culture solution by centrifugation, and five-mutation D-type amino acid dehydrogenase/pET100 was collected according to the manufacturer's protocol using AccuPrep Plasmid Mini Extraction Kit (BIONEER).
as §1

[3] = tested on: Wild type D-type amino acid dehydrogenase derived from T. lipolytica; assay: D-amino acid synthesis activity (amination of 2-oxo acid), wild type enzyme; assay type: biochemical, Thermosyntropha lipolytica; conditions: 5 mM 2-oxoacid, 200 mM ammonium chloride, glycine buffer pH 9.5, 50° C.; for D-amino acid synthesis activity (specific activity), Wild type, NADH: NADH 0.1 mM; for D-amino acid synthesis activity (specific activity), Wild type, NADPH: NADPH 0.1 mM
Procedure: as §1

[4] = target: D-type amino acid dehydrogenase derived from T. lipolytica (Thermosyntropha lipolytica, UniProt A0A1M5M5H3); assay: Coenzyme dependence by activity-staining after disc gel electrophoresis; assay type: biochemical; conditions: 10 mM meso-diaminopimelic acid, 1.25 mM coenzyme, pH 8.0, 50° C., 30 minutes
Procedure: The coenzyme dependence of the enzyme was evaluated by an activity-staining method due to an enzymatic catalytic reaction. More specifically, an appropriate amount of enzyme solution was subjected to disc gel electrophoresis. […] A reaction formula is indicated below. In the following reaction formula, the D-type amino acid dehydrogenase is referred to as “meso-DAPDH”.

[5] = substrate: N[C@H](CCC[C@H](N)C(=O)O)C(=O)O; assay: purified protein, by the assay type; conditions: other: meso-diaminopimelic acid as substrate, 50° C., values for meso-diaminopimelic acid determined using NADP^+ as the coenzyme
[6] = substrate: NC(=O)c1ccc[n+]([C@@H]2O[C@H](COP(=O)([O-])OP(=O)(O)OC[C@H]3O[C@@H](n4cnc5c(N)ncnc54)[C@H](O)[C@@H]3O)[C@@H](O)[C@H]2O)c1; assay: purified protein, by the assay type; assay type: biochemical, Thermosyntropha lipolytica; conditions: other: meso-diaminopimelic acid as substrate, 50° C., values for meso-diaminopimelic acid determined using NADP^+ as the coenzyme
Procedure: The absorbance was measured by an ultraviolet-visible spectrophotometer UV-1800 (available from SHIMADZU). The specific activity of the enzyme was calculated from the concentration of the enzyme used and enzyme dilution rate using the obtained absorbance change and the following equation.
A turnover number (kcat) as a reaction rate parameter, a Michaelis constant (Km) value, and catalytic efficiency (kcat/Km) were determined with Igor Pro ver. 3.14 (available from WaveMetrics) based on Michaelis-Menten equation after the initial velocities were plotted against different substrates and coenzyme concentrations.

Molecule: CC(C)C(=O)C(=O)O [2-oxo-3-methylbutanoic acid/D-valine, 2-oxo-3-methylbutanoic acid]
- D-amino acid synthesis activity (specific activity), Six-mutation enzyme, NADH [1]: 0.18 ± 0.00089 µmol/min/mg
- D-amino acid synthesis activity (specific activity), Six-mutation enzyme, NADPH [1]: 0.058 ± 0.0027 µmol/min/mg
- D-amino acid synthesis activity (specific activity), Five-mutation enzyme, NADH [2]: 0.18 ± 0.00078 µmol/min/mg
- D-amino acid synthesis activity (specific activity), Five-mutation enzyme, NADPH [2]: 0.11 ± 0.0034 µmol/min/mg
- D-amino acid synthesis activity (specific activity), Wild type, NADH [3]: 0.43 ± 0.0026 µmol/min/mg
- D-amino acid synthesis activity (specific activity), Wild type, NADPH [3]: 0.33 ± 0.0094 µmol/min/mg

Molecule: O=C(O)C(=O)Cc1ccccc1 [2-oxo-3-phenylpropanoic acid]
- D-amino acid synthesis activity (specific activity), Six-mutation enzyme, NADH [1]: No Activity
- D-amino acid synthesis activity (specific activity), Six-mutation enzyme, NADPH [1]: 0.036 ± 0.0037 µmol/min/mg
- D-amino acid synthesis activity (specific activity), Five-mutation enzyme, NADH [2]: No Activity
- D-amino acid synthesis activity (specific activity), Five-mutation enzyme, NADPH [2]: 0.068 ± 0.0039 µmol/min/mg
- D-amino acid synthesis activity (specific activity), Wild type, NADH [3]: 0.020 ± 0.0053 µmol/min/mg
- D-amino acid synthesis activity (specific activity), Wild type, NADPH [3]: No Activity

Molecule: CSCCC(=O)C(=O)O [2-oxo-4-(methylthio) butanoic acid]
- D-amino acid synthesis activity (specific activity), Six-mutation enzyme, NADH [1]: No Activity
- D-amino acid synthesis activity (specific activity), Six-mutation enzyme, NADPH [1]: 0.089 ± 0.0038 µmol/min/mg
- D-amino acid synthesis activity (specific activity), Five-mutation enzyme, NADH [2]: No Activity
- D-amino acid synthesis activity (specific activity), Five-mutation enzyme, NADPH [2]: 0.18 ± 0.0022 µmol/min/mg
- D-amino acid synthesis activity (specific activity), Wild type, NADH [3]: 0.0033 ± 0.0016 µmol/min/mg
- D-amino acid synthesis activity (specific activity), Wild type, NADPH [3]: 0.059 ± 0.0065 µmol/min/mg

Molecule: CC(C)CC(=O)C(=O)O [2-oxo-4-methylpentanoic acid/D-leucine, 2-oxo-4-methylpentanoic acid]
- D-amino acid synthesis activity (specific activity), Six-mutation enzyme, NADH [1]: No Activity
- D-amino acid synthesis activity (specific activity), Six-mutation enzyme, NADPH [1]: 0.11 ± 0.0013 µmol/min/mg
- D-amino acid synthesis activity (specific activity), Five-mutation enzyme, NADH [2]: 0.11 ± 0.0027 µmol/min/mg
- D-amino acid synthesis activity (specific activity), Five-mutation enzyme, NADPH [2]: 0.20 ± 0.0071 µmol/min/mg
- D-amino acid synthesis activity (specific activity), Wild type, NADH [3]: 0.27 ± 0.0064 µmol/min/mg
- D-amino acid synthesis activity (specific activity), Wild type, NADPH [3]: 0.061 ± 0.00082 µmol/min/mg

Molecule: O=C(O)CC(=O)C(=O)O [2-oxobutanedioic acid/D-aspartic acid, 2-oxobutanedioic acid]
- D-amino acid synthesis activity (specific activity), Six-mutation enzyme, NADH [1]: 0.12 ± 0.010 µmol/min/mg
- D-amino acid synthesis activity (specific activity), Six-mutation enzyme, NADPH [1]: 0.32 ± 0.0082 µmol/min/mg
- D-amino acid synthesis activity (specific activity), Five-mutation enzyme, NADH [2]: 0.14 ± 0.014 µmol/min/mg
- D-amino acid synthesis activity (specific activity), Five-mutation enzyme, NADPH [2]: 0.60 ± 0.035 µmol/min/mg
- D-amino acid synthesis activity (specific activity), Wild type, NADH [3]: 0.43 ± 0.015 µmol/min/mg
- D-amino acid synthesis activity (specific activity), Wild type, NADPH [3]: 5.7 ± 0.60 µmol/min/mg

Molecule: CCC(=O)C(=O)O [2-oxobutanoic acid/D-2-aminobutyric acid, 2-oxobutanoic acid]
- D-amino acid synthesis activity (specific activity), Six-mutation enzyme, NADH [1]: 0.032 ± 0.0023 µmol/min/mg
- D-amino acid synthesis activity (specific activity), Six-mutation enzyme, NADPH [1]: 0.077 ± 0.0041 µmol/min/mg
- D-amino acid synthesis activity (specific activity), Five-mutation enzyme, NADH [2]: 0.044 ± 0.0049 µmol/min/mg
- D-amino acid synthesis activity (specific activity), Five-mutation enzyme, NADPH [2]: 0.13 ± 0.0020 µmol/min/mg
- D-amino acid synthesis activity (specific activity), Wild type, NADH [3]: 0.13 ± 0.0041 µmol/min/mg
- D-amino acid synthesis activity (specific activity), Wild type, NADPH [3]: 2.3 ± 0.030 µmol/min/mg

Molecule: O=C(O)CCC(=O)C(=O)O [2-oxoglutaric acid/D-glutamic acid, 2-oxoglutaric acid]
- D-amino acid synthesis activity (specific activity), Six-mutation enzyme, NADH [1]: No Activity
- D-amino acid synthesis activity (specific activity), Six-mutation enzyme, NADPH [1]: 0.067 ± 0.0046 µmol/min/mg
- D-amino acid synthesis activity (specific activity), Five-mutation enzyme, NADH [2]: No Activity
- D-amino acid synthesis activity (specific activity), Five-mutation enzyme, NADPH [2]: 0.039 ± 0.0073 µmol/min/mg
- D-amino acid synthesis activity (specific activity), Wild type, NADH [3]: No Activity
- D-amino acid synthesis activity (specific activity), Wild type, NADPH [3]: 0.27 ± 0.010 µmol/min/mg

Molecule: CCCCCCC(=O)C(=O)O [2-oxooctanoic acid]
- D-amino acid synthesis activity (specific activity), Six-mutation enzyme, NADH [1]: 0.0098 ± 0.0047 µmol/min/mg
- D-amino acid synthesis activity (specific activity), Six-mutation enzyme, NADPH [1]: 0.35 ± 0.0093 µmol/min/mg
- D-amino acid synthesis activity (specific activity), Five-mutation enzyme, NADH [2]: 0.017 ± 0.0027 µmol/min/mg
- D-amino acid synthesis activity (specific activity), Five-mutation enzyme, NADPH [2]: 0.47 ± 0.012 µmol/min/mg
- D-amino acid synthesis activity (specific activity), Wild type, NADH [3]: No Activity
- D-amino acid synthesis activity (specific activity), Wild type, NADPH [3]: 0.101 ± 0.010 µmol/min/mg

Molecule: CC(=O)C(=O)O [2-oxopropanoic acid/D-alanine, 2-oxopropanoic acid]
- D-amino acid synthesis activity (specific activity), Six-mutation enzyme, NADH [1]: 0.0053 ± 0.0036 µmol/min/mg
- D-amino acid synthesis activity (specific activity), Six-mutation enzyme, NADPH [1]: 0.044 ± 0.0034 µmol/min/mg
- D-amino acid synthesis activity (specific activity), Five-mutation enzyme, NADH [2]: 0.0077 ± 0.0015 µmol/min/mg
- D-amino acid synthesis activity (specific activity), Five-mutation enzyme, NADPH [2]: 0.071 ± 0.00074 µmol/min/mg
- D-amino acid synthesis activity (specific activity), Wild type, NADH [3]: 0.49 ± 0.016 µmol/min/mg
- D-amino acid synthesis activity (specific activity), Wild type, NADPH [3]: 5.3 ± 0.038 µmol/min/mg

- coenzyme utilization (activity-staining) [4]: utilized
Molecule: NC(=O)c1ccc[n+]([C@@H]2O[C@H](COP(=O)([O-])OP(=O)(O)OC[C@H]3O[C@@H](n4cnc5c(N)ncnc54)[C@H](O)[C@@H]3O)[C@@H](O)[C@H]2O)c1 [NAD^+]

Molecule: NADP^+
- coenzyme utilization (activity-staining) [4]: utilized

B1: D-type amino acid dehydrogenase derived from T. lipolytica (Thermosyntropha lipolytica DSM 11003) (protein)
chain: MGEKIRVAIVGYGNIGRYALDAIKAAPDMELAGVVRRSSSLGDKPAELADVPVVGSIKELTGVKVALLCTPTRSVPEYAREILALGINTVDSYDIHGQLADLRLELDKVAKEHNAVAVISAGWDPGTDSMVRCMFEFMAPKGITYTNFGPGMSMGHSVAVKAVKGVKNALSMTIPLGTGVHRRMVYVELEPGADFAQVEKAVKTDPYFVKDETHVIQVEDVDALIDMGHGVLMERKGVSGGTHNQLLSFSMRINNPALTAQIMVASARASVKQKPGAYTMIQIPIIDYMYGDPDEIIRQLV
- Km [5]: 5.68 mM
- kcat [5]: 73.7 s⁻¹
- kcat/Km [5]: 13000 M⁻¹ s⁻¹
- Km [6]: 14.8 mM
- kcat [6]: 77.5 s⁻¹
- kcat/Km [6]: 5220 M⁻¹ s⁻¹
